Assay results from patent US20230016424A1, “HYBRID AMIDE DERIVATIVES OF AMPHOTERICIN B” (The Board of Trustees of the University of Illinois, priority 2019, published 2023).
In brackets after ≈: the same amount, converted by molar mass.

Columns and labels:
C. albicans SN250 = assay: MIC; assay type: cell-based, Candida albicans
C. albicans = assay: MIC; assay type: cell-based
C. krusei = assay: MIC; assay type: cell-based
C. glabrata = assay: MIC; assay type: cell-based
C. tropicalis = assay: MIC; assay type: cell-based
A. fumigatus 91 = assay: MIC; assay type: cell-based
A. fumigatus 1163 = assay: MIC; assay type: cell-based
A. fumigatus 1100 = assay: MIC; assay type: cell-based
[1] = tested on: C. albicans SN250, C. albicans, C. krusei, C. glabrata, C. tropicalis, A. fumigatus 91, 1163, 1100; assay: Average MIC over the tested strains; assay type: cell-based; details: for MIC: average over the 8 listed strains; for Average MIC for AmB analogue: value of the corresponding AmB analogue, not of the C2’epi compound
human erythrocytes = assay: MHC hemolysis assay; assay type: cell-based; details: hemolysis, human erythrocytes, 37° C. 2 hours
Method: MHC (FIG. 21B): The protocol for the hemolysis assay was adapted from the report of Paquet and coworkers (Chem. Eur. J. 2008, 14, 2465-2481). Whole human blood (sodium heparin) was purchased from Bioreclamation LLC (Westbury, N.Y.) and stored at 4° C. and used within two days of receipt. To a 2.0 mL eppendorf tube, 1 mL of whole human blood was added and centrifuged at 10,000 g for 2 minutes. The supernatant was removed and the erythrocyte pellet was washed with 1 mL of sterile saline and centrifuged at 10,000 g for 2 minutes. The saline wash was repeated for a total of three washes. The erythrocyte pellet was suspended in 1 mL of RBC buffer (10 mM NaH2PO4, 150 mM NaCl, 1 mM MgCl2, pH 7.4) to form the erythrocyte stock suspension.
Compounds were prepared as >15 mM stock solutions in DMSO and serially diluted to the following concentrations with DMSO: 7689, 5126, 2563, 2050, 1538, 1025, 769, 513, 384, 256, 205, 154, 103, 77, 51, 26 μM. To a 0.2 mL PCR tube, 24 μL of RBC buffer and 1 μL of compound stock solution were added, which gave final concentrations of […]. Positive and negative controls were prepared by adding 1 μL of DMSO to MilliQ water or RBC buffer, respectively to 0.2 mL PCR tube. To each PCR tube, 0.63 μL of the erythrocyte stock suspension was added and mixed by inversion. The samples were incubated at 37° C. for 2 hours. The samples were mixed by inversion and centrifuged at 10,000 g for 2 minutes. 15 μL of the supernatant from each sample was added to a 384-well place. Absorbances were read at 540 nm using a Biotek H1 Synergy Hybrid Reader (Wanooski, Vt.). Experiments were performed in triplicate and the reported MHC represents an average of three experiments.

[2] = UV-Vis sterol binding assay
Method: However, an alternative method was developed for reproducible formation of homogenous AmB and C2′epiAmB sterol sponge aggregates in vitro. Using these preparations, a quantitative UV-Vis and Principle Component (PCA) based assay for determining the apparent KDs for the binding of AmB and C2′epiAmB to ergosterol and cholesterol (FIGS. 5A-5D) was developed.
UV-Vis Binding Assay (FIG. 21A): The protocol for the sterol binding assay (UV-Vis) was developed in our lab. Compounds were dissolved in DMSO at a final concentration of 1 mM. Sterol were first dissolved in CHCl3 (>200 mM) and then diluted to 1 mM concentration with DMSO. To synthesize the complex 1 ul of compound solution was taken in a clean eppendorf tube (2 ml) and sterol solution (volume depends on the stoichiometry) was added to it and the volume was made up to 20 ul with DMSO. 0.98 ml of PBS buffer was added to the Eppendorf tube and mixed properly. The absorbance of the solution was measured after 30 mins of incubation.

Row | Compound | MIC C. albicans SN250 (C. albicans SN250) [µM] | MIC C. albicans (C. albicans) [µM] | MIC C. krusei (C. krusei) [µM] | MIC C. glabrata (C. glabrata) [µM] | MIC C. tropicalis (C. tropicalis) [µM] | MIC A. fumigatus 91 (A. fumigatus 91) [µM] | MIC A. fumigatus 1163 (A. fumigatus 1163) [µM] | MIC A. fumigatus 1100 (A. fumigatus 1100) [µM] | MIC [1] [µM] | Average MIC for AmB analogue [1] [μM] | MHC (human erythrocytes) [µM] | Cholesterol Binding [2]
1 | CC1C=CC=CC=CC=CC=CC=CC=CC(OC2OC(C)C(O)C(N)C2O)CC2OC(O)(CC(O)CC(O)C(O)CCC(O)CC(O)CC(=O)OC(C)C(C)C1O)CC(O)C2C(=O)NCC(O)CO (stereo not shown) [AK] | 0.15 (≈ 0.15 µg/mL) | 0.25 (≈ 0.249 µg/mL) | 0.4 (≈ 0.399 µg/mL) | 0.1 (≈ 0.0997 µg/mL) | 0.3 (≈ 0.299 µg/mL) | 1 (≈ 0.997 µg/mL) | 0.5 (≈ 0.499 µg/mL) | 0.75 (≈ 0.748 µg/mL) | 0.431 |  |  | 
2 | CNC(=O)C1C(O)CC2(O)CC(O)CC(O)C(O)CCC(O)CC(O)CC(=O)OC(C)C(C)C(O)C(C)C=CC=CC=CC=CC=CC=CC=CC(OC3OC(C)C(O)C(N)C3O)CC1O2 (stereo not shown) [BB] | 0.5 (≈ 0.469 µg/mL) | 0.5 (≈ 0.469 µg/mL) | 2 (≈ 1.87 µg/mL) | 0.375 (≈ 0.351 µg/mL) | 0.5 (≈ 0.469 µg/mL) | 4 (≈ 3.75 µg/mL) | 4 (≈ 3.75 µg/mL) | 2 (≈ 1.87 µg/mL) | 1.734 | 0.336 | >500 | No
3 | CC1C=CC=CC=CC=CC=CC=CC=CC(OC2OC(C)C(O)C(N)C2O)CC2OC(O)(CC(O)CC(O)C(O)CCC(O)CC(O)CC(=O)OC(C)C(C)C1O)CC(O)C2C(=O)NC1CCC1 (stereo not shown) [BE] | 1 (≈ 0.977 µg/mL) | 2 (≈ 1.95 µg/mL) | 4 (≈ 3.91 µg/mL) | 0.5 (≈ 0.489 µg/mL) | 1 (≈ 0.977 µg/mL) | 8 (≈ 7.82 µg/mL) | 8 (≈ 7.82 µg/mL) | 4 (≈ 3.91 µg/mL) | 3.563 | 1.281 |  | 
4 | CC1C=CC=CC=CC=CC=CC=CC=CC(OC2OC(C)C(O)C(N)C2O)CC2OC(O)(CC(O)CC(O)C(O)CCC(O)CC(O)CC(=O)OC(C)C(C)C1O)CC(O)C2C(=O)NCC(C)(C)O (stereo not shown) [AI] | 0.3 (≈ 0.299 µg/mL) | 0.4 (≈ 0.398 µg/mL) | 1 (≈ 0.995 µg/mL) | 0.25 (≈ 0.249 µg/mL) | 0.45 (≈ 0.448 µg/mL) | 1 (≈ 0.995 µg/mL) | 1 (≈ 0.995 µg/mL) | 1 (≈ 0.995 µg/mL) | 0.675 |  |  | 
